The values below come from US10238667B2, “Vitamin D receptor/SMAD genomic circuit gates fibrotic response” (Salk Institute for Biological Studies, priority 2013, dated 2019).

Assay [1] deals with primary mouse HSCs. Description: Fibrotic gene expression in primary mouse HSCs. The assay is classed as cell-based. To be noted: primary mouse HSCs (data not shown). As to the method:
HSCs were isolated from 10-week old male C57BL/6J mice and Wistar rats by in situ pronase, collagenase perfusion and single-step Histogenz gradient as previously reported (Hendriks et al., 1985; Knook et al., 1982). Isolated HSCs were cultured in DMEM (Mediatech) containing 20% FBS (Hyclone) on 6-well plates for 40 hours prior to end-point assays.
LX-2 cells, a generous gift from Professor Scott Friedman, Mount Sinai School of Medicine, New York, N.Y., were cultured as described previously (Xu et al., 2005). […] For luciferase assays, DNA transfections were performed using Fugene 6 (Roche) following the manufacturer's instructions. […] RT-qPCR, total RNA was purified following TRIzol extraction and treated with DNaseI (Invitrogen). cDNA synthesis was carried out with iScript RT Supermix (Biorad). Quantitative PCR was performed in technical triplicates using SYBR Green reagent (Biorad). The relative standard curve method was used for quantitation (Biorad). Expression levels were calculated by normalization to either Gapdh (mouse) or U36B4 (human) quantities.

The subject of assay [2] is CBP, p300 and acetylated histone H3. Description: ChIP-qPCR of CBP, p300 and acetylated histone H3 at COL1A1 regulatory region in LX-2 cells. Type of assay: cell-based, human. To be noted: co-treated with calcipotriol 100 nM and TGFβ1 1 ng/ml. The source says: FIGS. 12A-12B. Coactivator/Corepressor Recruitment and Histone H3 Acetylation Status at Regulatory Regions of Fibrotic Genes Co-occupied by VDR and SMAD. […] The level of occupancy is expressed relative to input chromatin in LX-2 cells treated with corresponding conditions. Data represents the mean+/−SEM of at least three independent experiments performed in triplicate. Asterisks denote statistically significant differences (Student's t test, *p<0.05). […] The level of occupancy is expressed relative to input chromatin in LX-2 cells treated with corresponding conditions.
(§1) Cells were then harvested for ChIP assay. The experimental procedure for ChIP was as previously described (Barish et al., 2010). Briefly, after fixation, nuclei from LX-2 cells were isolated, lysed and sheared with a Diagenode Bioruptor to yield DNA fragment sizes of 200-1000 base pairs followed by immunoprecipitation using antibodies listed below: normal rabbit IgG (Santa Cruz, sc-2027), VDR (Santa Cruz, sc-1008), SMAD3 (Abcam, ab28379) and histone H3 (Abcam, ab1791). For ChIP-Re-ChIP, after first ChIP, the immunoprecipitated DNA-protein complex was eluted from beads using 10 mM DTT, diluted 100-fold then re-immunoprecipitated with a second antibody, re-ChIP.
A general note: Real-time PCR tracks product formation cycle by cycle.

In assay [3] the test system is SMAD3. Description: ChIP-qPCR time course of SMAD3 binding at COL1A1 regulatory region #1 in LX-2 cells. Type of assay: cell-based, human.
Source text: FIGS. 14A-14D. VDR/SMAD Genomic Circuit. […] Data represents the mean±SEM of at least three independent experiments performed in triplicate. Asterisks denote statistically significant differences compared to calcipotriol-induced VDR occupancy or TGFβ1-induced SMAD3 occupancy of corresponding time point (Student's unpaired t-test, *p<0.05, **p<0.01). […] Data represents the mean±SEM of at least three independent experiments performed in triplicate. (D) Model depicting proposed VDR/SMAD genomic circuit controlling pro-fibrogenic responses in HSCs.
as §1
Specifically, ChIP-qPCR was employed to monitor binding of VDR and SMAD3 to the cis-regulatory region of COL1A1 at multiple time points (0, 1, 2, 4, 6, 16 hours).

Consider `C=C1/C(=C\C=C2/CCC[C@]3(C)[C@@H]([C@H](C)/C=C/[C@@H](O)C4CC4)CC[C@@H]23)C[C@@H](O)C[C@@H]1O` [calcipotriol, 1α,24-(OH)2-24-cyclopropyl-D3], for which the fibrotic gene expression result in assay [1] was “potently repressed”. Besides, the “TGFβ1 induced recruitment of p300 and CBP and histone H3 hyperacetylation at COL1A1 regulatory region” value in assay [2] was “lost”. Moreover, the SMAD3 recruitment reduced in assay [3] (after 4 hours, TGFβ1 + calcipotriol vs TGFβ1) was found to be 70%. The “time of maximum binding of SMAD3 post-TGFβ1 treatment” value in assay [3] (in the presence of calcipotriol 100 nM, TGFβ1 alone maximal at 4 hours) was found to be 1 h.
